Test results as given in article PMC6376178 (Theranostics, 2019).

Target: T1, USP5 (ubiquitin-specific protease 5) (Homo sapiens, UniProt P45974)
T1 sequence (P45974 2-858): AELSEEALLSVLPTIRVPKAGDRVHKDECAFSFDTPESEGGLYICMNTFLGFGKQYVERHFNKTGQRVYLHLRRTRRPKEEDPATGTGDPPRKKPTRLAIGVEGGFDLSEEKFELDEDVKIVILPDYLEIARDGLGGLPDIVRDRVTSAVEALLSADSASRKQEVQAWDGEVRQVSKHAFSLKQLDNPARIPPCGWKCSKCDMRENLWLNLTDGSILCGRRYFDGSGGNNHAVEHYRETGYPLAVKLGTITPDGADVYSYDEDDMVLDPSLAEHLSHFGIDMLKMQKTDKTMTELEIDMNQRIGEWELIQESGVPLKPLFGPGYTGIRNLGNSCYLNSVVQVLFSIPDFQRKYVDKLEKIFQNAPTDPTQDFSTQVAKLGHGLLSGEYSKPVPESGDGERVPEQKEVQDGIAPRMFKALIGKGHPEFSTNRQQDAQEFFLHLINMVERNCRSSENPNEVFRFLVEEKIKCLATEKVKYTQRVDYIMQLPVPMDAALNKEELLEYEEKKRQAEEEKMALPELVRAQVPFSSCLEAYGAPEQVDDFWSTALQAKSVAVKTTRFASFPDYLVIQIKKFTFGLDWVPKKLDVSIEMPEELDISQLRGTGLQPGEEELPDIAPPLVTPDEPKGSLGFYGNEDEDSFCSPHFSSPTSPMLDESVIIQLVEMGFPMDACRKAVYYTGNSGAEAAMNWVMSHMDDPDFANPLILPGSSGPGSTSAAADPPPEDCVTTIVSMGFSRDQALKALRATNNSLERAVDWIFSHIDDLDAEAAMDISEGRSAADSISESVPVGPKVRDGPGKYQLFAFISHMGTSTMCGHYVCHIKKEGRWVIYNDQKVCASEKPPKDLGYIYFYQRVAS
Assay: SPR
Assay type: binding

SMILES: COc1ccc(-c2coc3cc(O)ccc3c2=O)cc1 [Formononetin]
- Kd: 25.1 µM
